# Results taken from patent US12043599B2, “Herbicidal compounds” (SYNGENTA PARTICIPATIONS AG, priority 2018, dated 2024).
# Experiments:
# Format in all cases: in vivo
# Details in all cases: 250 g/h, evaluated after 13 days
# [1] = tested on: Alopecurus myosuroides (ALOMY); test: Pre-emergence herbicidal glasshouse test, percentage damage
# Procedure, shortened: (§1)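 Damage assessed 13 days after treatment and expressed as a five-point score (5=80-100%; 4=60-79%; 3=40-59%; 2=20-39%; 1=0-19%). Compound applied at 250 g/h as an acetone/water/0.5% Tween 20 spray, pre-emergence (day 1 after sowing) or post-emergence (day 8). Plants kept at 24/16° C., 14 h light, 65% humidity.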
# Avena fatua (AVEFA) [2] = test: as above
# Procedure, shortened: as §1
# [3] = tested on: Echinochloa crus-galli (ECHCG); test: as above
# Procedure, shortened: as §1
# Lolium perenne (LOLPE) [4] = test: as above
# Procedure, shortened: as §1
# Setaria faberi (SETFA) [5] = test: as above
# Procedure, shortened: as §1
# Setaria faberi (SETFA) [6] = test: Post-emergence herbicidal glasshouse test, percentage damage
# Procedure, shortened: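 Percentage damage was scored 13 days after treatment on a five-point scale (1=0-19% to 5=80-100%). Treatments were post-emergence sprays on 8-day-old wheat, barley and SETFA plants in a glasshouse (24/16 °C day/night, 14 h light, 65% humidity), using acetone/water 50:50 with 0.5% Tween 20 at the stated rates. Wheat additionally received cloquintocet-mexyl safener at 50 g/ha.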
# [7] = tested on: Alopecurus myosuroides (ALOMY); test: as above
# Procedure, shortened: as §1
# Avena fatua (AVEFA) [8] = test: as above
# Procedure, shortened: as §1
# Lolium perenne (LOLPE) [9] = test: as above
# Procedure, shortened: as §1
Compound,ALOMY PRE percentage damage (five point scale) [1],AVEFA PRE percentage damage (five point scale) (Avena fatua (AVEFA) [2]),ECHCG PRE percentage damage (five point scale) [3],LOLPE PRE percentage damage (five point scale) (Lolium perenne (LOLPE) [4]),SETFA PRE percentage damage (five point scale) (Setaria faberi (SETFA) [5]),SETFA POST percentage damage (five point scale) (Setaria faberi (SETFA) [6]),ALOMY POST percentage damage (five point scale) [7],AVEFA POST percentage damage (five point scale) (Avena fatua (AVEFA) [8]),LOLPE POST percentage damage (five point scale) (Lolium perenne (LOLPE) [9])
CC#Cc1cc(C)c(C2=C(O)CC3(CCN(C=O)CC3)CC2=O)c(C)c1 [Compound A96],5 (5=80-100%),5 (5=80-100%),5 (5=80-100%),5 (5=80-100%),5 (5=80-100%),5 (5=80-100%),5 (5=80-100%),5 (5=80-100%),5 (5=80-100%)
CC#Cc1cc(C)c(C2C(=O)CC3(CCN(S(=O)(=O)CC4CC4)CC3)CC2=O)c(C)c1 [Compound A15],5 (5=80-100%),5 (5=80-100%),5 (5=80-100%),5 (5=80-100%),5 (5=80-100%),5 (5=80-100%),5 (5=80-100%),5 (5=80-100%),5 (5=80-100%)
CC#Cc1cc(C)c(C2=C(OC(=O)OC)CC3(CCN(C(=O)C(C)(C)OC)CC3)CC2=O)c(C)c1 [Compound P26],5 (5=80-100%),5 (5=80-100%),5 (5=80-100%),5 (5=80-100%),5 (5=80-100%),5 (5=80-100%),5 (5=80-100%),5 (5=80-100%),5 (5=80-100%)
CC#Cc1cc(C)c(C2=C(OC(=O)OC)CC3(CCN(S(=O)(=O)c4ccccn4)CC3)CC2=O)c(C)c1 [Compound P34],5 (5=80-100%),5 (5=80-100%),5 (5=80-100%),5 (5=80-100%),5 (5=80-100%),5 (5=80-100%),5 (5=80-100%),5 (5=80-100%),5 (5=80-100%)
CC#Cc1cc(C)c(C2C(=O)CC3(CCN(S(=O)(=O)Cc4ccon4)CC3)CC2=O)c(C)c1 [Compound A97],4 (4=60-79%),5 (5=80-100%),5 (5=80-100%),5 (5=80-100%),5 (5=80-100%),5 (5=80-100%),5 (5=80-100%),5 (5=80-100%),5 (5=80-100%)
CC#Cc1cc(C)c(C2C(=O)CC3(CCN(S(=O)(=O)c4cccnc4)CC3)CC2=O)c(C)c1 [Compound A98],4 (4=60-79%),5 (5=80-100%),4 (4=60-79%),5 (5=80-100%),3 (3=40-59%),5 (5=80-100%),5 (5=80-100%),5 (5=80-100%),5 (5=80-100%)
CC#Cc1cc(C)c(C2C(=O)CC3(CCN(S(=O)(=O)c4ccccc4F)CC3)CC2=O)c(C)c1 [Compound A17],5 (5=80-100%),5 (5=80-100%),5 (5=80-100%),5 (5=80-100%),5 (5=80-100%),5 (5=80-100%),5 (5=80-100%),5 (5=80-100%),5 (5=80-100%)
CC#Cc1cc(C)c(C2=C(OC(=O)OC)CC3(CCN(C(=O)C(C)OC)CC3)CC2=O)c(C)c1 (stereo not drawn) [Compound P32],5 (5=80-100%),5 (5=80-100%),5 (5=80-100%),5 (5=80-100%),5 (5=80-100%),5 (5=80-100%),5 (5=80-100%),5 (5=80-100%),5 (5=80-100%)
CC#Cc1cc(C)c(C2C(=O)CC3(CCN(S(=O)(=O)c4cn(C)nc4C(F)(F)F)CC3)CC2=O)c(C)c1 [Compound A40],5 (5=80-100%),5 (5=80-100%),5 (5=80-100%),5 (5=80-100%),5 (5=80-100%),5 (5=80-100%),5 (5=80-100%),5 (5=80-100%),5 (5=80-100%)
CC#Cc1cc(C)c(C2C(=O)CC3(CCN(c4cncnc4)CC3)CC2=O)c(C)c1 [Compound A87],4 (4=60-79%),3 (3=40-59%),5 (5=80-100%),5 (5=80-100%),5 (5=80-100%),5 (5=80-100%),5 (5=80-100%),5 (5=80-100%),5 (5=80-100%)
CC#Cc1cc(C)c(C2=C(OC(=O)OC)CC3(CCN(C(=O)C(C)O)CC3)CC2=O)c(C)c1 (stereo not drawn) [Compound P31],5 (5=80-100%),5 (5=80-100%),5 (5=80-100%),5 (5=80-100%),5 (5=80-100%),5 (5=80-100%),5 (5=80-100%),5 (5=80-100%),5 (5=80-100%)
CC#Cc1cc(C)c(C2C(=O)CC3(CCN(C(=O)c4cccnn4)CC3)CC2=O)c(C)c1 [Compound A21],5 (5=80-100%),5 (5=80-100%),2 (2=20-39%),5 (5=80-100%),3 (3=40-59%),5 (5=80-100%),5 (5=80-100%),5 (5=80-100%),5 (5=80-100%)
CC#Cc1cc(C)c(C2C(=O)CC3(CCN(C(=O)c4ccc(C#N)cn4)CC3)CC2=O)c(C)c1 [Compound A20],5 (5=80-100%),5 (5=80-100%),5 (5=80-100%),5 (5=80-100%),5 (5=80-100%),5 (5=80-100%),5 (5=80-100%),5 (5=80-100%),5 (5=80-100%)
CC#Cc1cc(C)c(C2=C(OC(=O)OC)CC3(CCN(C(=O)C4(C#N)CC4)CC3)CC2=O)c(C)c1 [Compound P33],5 (5=80-100%),5 (5=80-100%),5 (5=80-100%),5 (5=80-100%),5 (5=80-100%),5 (5=80-100%),5 (5=80-100%),5 (5=80-100%),5 (5=80-100%)
CC#Cc1cc(C)c(C2=C(OC(=O)OC)CC3(CCN(C(=O)c4ncccn4)CC3)CC2=O)c(C)c1 [Compound P22],5 (5=80-100%),5 (5=80-100%),5 (5=80-100%),5 (5=80-100%),5 (5=80-100%),5 (5=80-100%),5 (5=80-100%),5 (5=80-100%),5 (5=80-100%)
